{"source": "patent US4593104A", "about": "“2-halo-N-(azole-1-yl-methyl)-substituted acetanilides” (BASF Aktiengesellschaft, priority 1976, dated 1986)", "assay_in_all_cases": "preemergence treatment in the greenhouse, % damage", "key": {"Gossyp. hirs.": {"tested_on": "Gossyp. hirs.", "type": "in vivo, Gosspyium hirsutum", "procedure,_shortened": "(§1)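 Test species were sown separately in sandy loam and held at 25–40 °C (heat-loving) or 15–30 °C (temperate). Actives in water went onto the soil surface immediately (preemergence) or onto 3–10 cm plants (postemergence). A 0–100 scale rates emergence loss or destruction over 4–6 weeks.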"}, "Ipom. spp.": {"tested_on": "Ipom. spp.", "type": "in vivo", "procedure,_shortened": "as §1"}, "Panic. virg.": {"tested_on": "Panic. virg.", "type": "in vivo", "procedure,_shortened": "as §1"}, "Amar. retro.": {"tested_on": "Amar. retro.", "type": "in vivo", "procedure,_shortened": "as §1"}, "Solanum nigrum": {"tested_on": "Solanum nigrum", "type": "in vivo", "procedure,_shortened": "as §1"}, "Lept. spp.": {"tested_on": "Lept. spp.", "type": "in vivo", "procedure,_shortened": "as §1"}, "Cenchr. ech.": {"tested_on": "Cenchr. ech.", "type": "in vivo", "procedure,_shortened": "as §1"}, "Cyp. diff.": {"tested_on": "Cyp. diff.", "type": "in vivo", "procedure,_shortened": "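Ratings, on a 0 to 100 scale, show injury where 100 means no emergence or complete destruction of visible parts. Compounds in water were sprayed either onto freshly sown soil, which was then watered and hooded, or onto plants 3–10 cm tall. Observation lasted 4–6 weeks.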"}, "Sida spin.": {"tested_on": "Sida spin.", "type": "in vivo", "procedure,_shortened": "as §1"}, "Echin. c.g.": {"tested_on": "Echin. c.g.", "type": "in vivo", "procedure,_shortened": "as §1"}, "Glyc. max": {"tested_on": "Glyc. max", "type": "in vivo, Glycine max", "procedure,_shortened": "as §1"}}}
{"smiles": "CCc1cccc(CC)c1N(Cn1nc(C)cc1C)C(=O)CCl", "note": "[Compound 41]", "values": [{"measurement": "% damage", "setting": "Gossyp. hirs.; 0.25 kg/ha", "value": 0, "unit": "%"}, {"measurement": "% damage", "setting": "Gossyp. hirs.; 0.5 kg/ha", "value": 8, "unit": "%"}, {"measurement": "% damage", "setting": "Gossyp. hirs.; 1.0 kg/ha", "value": 8, "unit": "%"}, {"measurement": "% damage", "setting": "Gossyp. hirs.; 2.0 kg/ha", "value": 10, "unit": "%"}, {"measurement": "% damage", "setting": "Ipom. spp.; 1.0 kg/ha", "value": 50, "unit": "%"}, {"measurement": "% damage", "setting": "Ipom. spp.; 2.0 kg/ha", "value": 90, "unit": "%"}, {"measurement": "% damage", "setting": "Panic. virg.; 0.25 kg/ha", "value": 85, "unit": "%"}, {"measurement": "% damage", "setting": "Panic. virg.; 0.5 kg/ha", "value": 85, "unit": "%"}, {"measurement": "% damage", "setting": "Panic. virg.; 1.0 kg/ha", "value": 100, "unit": "%"}, {"measurement": "% damage", "setting": "Panic. virg.; 2.0 kg/ha", "value": 100, "unit": "%"}, {"measurement": "% damage", "setting": "Amar. retro.; 0.25 kg/ha", "value": 73, "unit": "%"}, {"measurement": "% damage", "setting": "Amar. retro.; 0.5 kg/ha", "value": 97, "unit": "%"}, {"measurement": "% damage", "setting": "Amar. retro.; 1.0 kg/ha", "value": 100, "unit": "%"}, {"measurement": "% damage", "setting": "Amar. retro.; 2.0 kg/ha", "value": 100, "unit": "%"}, {"measurement": "% damage", "setting": "Solanum nigrum; 0.25 kg/ha", "value": 70, "unit": "%"}, {"measurement": "% damage", "setting": "Solanum nigrum; 0.5 kg/ha", "value": 90, "unit": "%"}, {"measurement": "% damage", "setting": "Solanum nigrum; 1.0 kg/ha", "value": 98, "unit": "%"}, {"measurement": "% damage", "setting": "Solanum nigrum; 2.0 kg/ha", "value": 100, "unit": "%"}, {"measurement": "% damage", "setting": "Lept. spp.; 0.25 kg/ha", "value": 95, "unit": "%"}, {"measurement": "% damage", "setting": "Lept. spp.; 0.5 kg/ha", "value": 95, "unit": "%"}, {"measurement": "% damage", "setting": "Lept. spp.; 1.0 kg/ha", "value": 95, "unit": "%"}, {"measurement": "% damage", "setting": "Lept. spp.; 2.0 kg/ha", "value": 95, "unit": "%"}, {"measurement": "% damage", "setting": "Cenchr. ech.; 0.25 kg/ha", "value": 90, "unit": "%"}, {"measurement": "% damage", "setting": "Cenchr. ech.; 0.5 kg/ha", "value": 92, "unit": "%"}, {"measurement": "% damage", "setting": "Cenchr. ech.; 1.0 kg/ha", "value": 100, "unit": "%"}, {"measurement": "% damage", "setting": "Cenchr. ech.; 2.0 kg/ha", "value": 100, "unit": "%"}, {"measurement": "% damage", "setting": "Cyp. diff.; 0.25 kg/ha", "value": 100, "unit": "%"}, {"measurement": "% damage", "setting": "Cyp. diff.; 0.5 kg/ha", "value": 100, "unit": "%"}, {"measurement": "% damage", "setting": "Cyp. diff.; 1.0 kg/ha", "value": 100, "unit": "%"}, {"measurement": "% damage", "setting": "Sida spin.; 1.0 kg/ha", "value": 45, "unit": "%"}, {"measurement": "% damage", "setting": "Sida spin.; 2.0 kg/ha", "value": 90, "unit": "%"}, {"measurement": "% damage", "setting": "Echin. c.g.; 0.25 kg/ha", "value": 95, "unit": "%"}, {"measurement": "% damage", "setting": "Echin. c.g.; 0.5 kg/ha", "value": 100, "unit": "%"}, {"measurement": "% damage", "setting": "Echin. c.g.; 1.0 kg/ha", "value": 100, "unit": "%"}, {"measurement": "% damage", "setting": "Echin. c.g.; 2.0 kg/ha", "value": 100, "unit": "%"}, {"measurement": "% damage", "setting": "Glyc. max; 0.25 kg/ha", "value": 0, "unit": "%"}, {"measurement": "% damage", "setting": "Glyc. max; 0.5 kg/ha", "value": 0, "unit": "%"}, {"measurement": "% damage", "setting": "Glyc. max; 1.0 kg/ha", "value": 0, "unit": "%"}, {"measurement": "% damage", "setting": "Glyc. max; 2.0 kg/ha", "value": 0, "unit": "%"}]}
